This note sets out measurements from patent US9073830B2 (Hyundai Pharm Co., Ltd., priority 2011, dated 2015).

The target in one assay is T1, human 11β-HSD1 (Homo sapiens, UniProt P28845).
T1 construct: 100 ug/ml human/mouse liver microsomes; from tissue; host or cells: human liver microsomes
The assay can be described thus: Enzyme activity analysis on human 11β-HSD1 (HTRF cortisol, liver microsomes). To be noted: first value of cell. It is filed as biochemical. An outline of the steps: (§1)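 Cortisol generated by mouse or human liver microsome 11β-HSD1 during 2 h at 37° C., measured by HTRF competition (cryptate anti-cortisol antibody, d2-cortisol, 2 h room temperature) against a cortisol standard curve. IC50 from percent inhibition versus no-compound control.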

The target in another assay is T2, mouse 11β-HSD1 (Mus musculus, UniProt P50172).
T2 construct: 100 ug/ml human/mouse liver microsomes; from tissue; host or cells: mouse liver microsomes
T2 sequence (P50172 whole entry): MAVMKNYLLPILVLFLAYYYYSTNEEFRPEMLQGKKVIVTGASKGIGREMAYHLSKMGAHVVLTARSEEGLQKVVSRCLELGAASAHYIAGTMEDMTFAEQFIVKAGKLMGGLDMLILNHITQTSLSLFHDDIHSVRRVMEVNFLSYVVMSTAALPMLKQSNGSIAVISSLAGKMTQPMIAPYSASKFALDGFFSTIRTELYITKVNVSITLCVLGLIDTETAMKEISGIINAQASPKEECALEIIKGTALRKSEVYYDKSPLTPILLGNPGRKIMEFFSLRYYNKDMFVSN
Nature of the assay: Enzyme activity analysis on mouse 11β-HSD1 (HTRF cortisol, liver microsomes). It is filed as biochemical. To be noted: second value of cell. An outline of the steps: as §1
For orientation: Time-resolved FRET reads energy transfer from a long-lived donor to a nearby acceptor.

The target in a further assay is T3, glucocorticoid receptor (Homo sapiens, UniProt P04150).
T3 construct: 4× GR-LBD up to 4 nM, and 4× Tb anti-GST Antibody up to 8 nM; purchased Invitrogen PV6040
T3 sequence (P04150 524-758 limits assumed): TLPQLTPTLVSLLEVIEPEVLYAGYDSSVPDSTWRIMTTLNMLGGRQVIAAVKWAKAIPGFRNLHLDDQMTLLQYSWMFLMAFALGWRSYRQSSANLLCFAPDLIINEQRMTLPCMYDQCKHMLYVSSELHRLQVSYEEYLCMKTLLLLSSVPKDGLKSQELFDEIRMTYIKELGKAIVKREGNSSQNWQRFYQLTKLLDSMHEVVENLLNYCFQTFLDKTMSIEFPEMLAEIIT
The assay can be described thus: Competitive binding of glucocorticoid receptor (LanthaScreen TR-FRET). To be noted: final concentration 10 uM. As to the method:
In order to confirm the selective inhibitory ability of 11β-HSD1 inhibitor, competitive binding between 11β-HSD1 inhibitor and glucocorticoid ligand was tested by using LanthaScreen TR-FRET Glucocorticoid Receptor Competitive Binding Assay (Invitrogen, PV6040). The test material was dissolved in DMSO (Sigma, 276855) up to a 100× concentration of its final concentration (10 uM), and then Complete Nuclear Receptor Buffer F (1× stabilizing peptide, 5 mM DTT, Nuclear Receptor Buffer F) was used to dilute the test material up to a concentration of 2×, 4× Fluormone™ GS1 Green up to 20 nM, 4× GR-LBD up to 4 nM, and 4× Tb anti-GST Antibody up to 8 nM.
In order to obtain 60 μl of a final product through a reaction, on a 96-well plate, 2× test material 30 μl, 4× Fluormone™ GS1 Green 15 μl, and 4× GR-LBD/Tb anti-GST Antibody 15 μl were mixed, and reacted for 1 hour. In a positive control group, instead of the test material, Dexamethasone (Sigma, D1756), known as a ligand for glucocorticoid receptor, was used, and in a maximum active control group, DMSO was used, instead of the test material. In a negative control group, instead of the test material, DMSO was used, instead of Fluormone™ GS1 Green, Complete Nuclear Receptor Buffer F was used. On a 384-well white plate, 20 μl each was plated. By using Time-Resolved program in Flexstation3, a fluorescence value was read after excitation ([…]), emission (515 nM/486 nM), Delay time (100 μs), and Integration time (1500 μs) were programmed. By using the obtained value, a value of 515 nM/486 nM was calculated, from which the value in the negative control group was subtracted. The degree of binding of the test material to glucocorticoid receptor of was calculated by the active value of the test material with respect to the active value (100%) in the maximum active control group.

T1 sequence (P28845 whole entry): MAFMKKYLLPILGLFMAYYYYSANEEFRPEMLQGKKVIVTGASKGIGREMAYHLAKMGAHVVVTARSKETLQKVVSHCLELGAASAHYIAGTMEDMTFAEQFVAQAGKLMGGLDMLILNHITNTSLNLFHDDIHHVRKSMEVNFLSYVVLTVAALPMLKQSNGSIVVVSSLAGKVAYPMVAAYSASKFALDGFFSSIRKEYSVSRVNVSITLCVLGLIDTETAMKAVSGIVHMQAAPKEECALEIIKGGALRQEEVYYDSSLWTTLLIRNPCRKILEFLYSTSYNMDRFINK

For the compound `Cc1c(Cl)cccc1S(=O)(=O)NC(C)(C)C(=O)NC1C2CC3CC1CC(C(N)=O)(C3)C2` (stereo not shown) [compound 97, N-4-(2-(2-methyl-3-chlorophenylsulfonamido)-2-methylpropanamido)adamantane-1-carboxyamide], the IC50 (as a rule, the concentration that inhibits the measured activity by half) on human 11β-HSD1 came out at 0.005 µM; against mouse 11β-HSD1, 0.01 µM. Also, the “binding to glucocorticoid receptor” value on glucocorticoid receptor is recorded as “did not bind to glucocorticoid receptor”.

In the case of `CC(C)(NS(=O)(=O)c1ccccc1Cl)C(=O)NC1C2CC3CC1CC(C(N)=O)(C3)C2` (stereo not shown) [compound 83, N-4-(2-(2-chlorophenylsulfonamido)-2-methylpropanamido)adamantane-1-carboxyamide], the IC50 worked out at 0.009 µM against human 11β-HSD1 and 0.018 µM on mouse 11β-HSD1. Also, the “binding to glucocorticoid receptor” value at glucocorticoid receptor was “did not bind to glucocorticoid receptor”.

Take `CC(C)(NS(=O)(=O)c1ccccc1F)C(=O)NC1C2CC3CC1CC(C(N)=O)(C3)C2` (stereo not shown) [compound 85, N-4-(2-(2-fluorophenylsulfonamido)-2-methylpropanamido)adamantane-1-carboxyamide]: inhibition on human 11β-HSD1 was half-maximal at 0.039 µM (IC50). Moreover, the “binding to glucocorticoid receptor” value on glucocorticoid receptor was “did not bind to glucocorticoid receptor”.

Regarding `Cc1ccccc1S(=O)(=O)NC(C)(C)C(=O)NC1C2CC3CC1CC(C(N)=O)(C3)C2` (stereo not shown) [compound 104, N-4-(2-(2-methylphenylsulfonamido)-2-methylpropanamido)adamantane-1-carboxyamide], the IC50 on human 11β-HSD1 was found to be 0.014 µM; against mouse 11β-HSD1, 0.046 µM. In addition, the “binding to glucocorticoid receptor” value on glucocorticoid receptor was “did not bind to glucocorticoid receptor”.

`CC(C)(NS(=O)(=O)c1ccccc1[N+](=O)[O-])C(=O)NC1C2CC3CC(C2)CC1C3` (stereo not shown) [compound 43, N-(adamantane-2-yl)-2-methyl-2-(2-nitrophenylsulfonamido)propanamide]: the 50% inhibitory concentration (IC50) against human 11β-HSD1 came out at 0.016 µM; against mouse 11β-HSD1, 0.085 µM. Further, the “binding to glucocorticoid receptor” value at glucocorticoid receptor was “did not bind to glucocorticoid receptor”.

With `CC(C)(NS(=O)(=O)c1cccc(Cl)c1Cl)C(=O)NC1C2CC3CC1CC(C(N)=O)(C3)C2` (stereo not shown) [compound 87, N-4-(2-(2,3-dichlorophenylsulfonamido)-2-methylpropanamido)adamantane-1-carboxyamide], the IC50 against human 11β-HSD1 was 0.005 µM; against mouse 11β-HSD1 it was 0.007 µM. In addition, on glucocorticoid receptor, the “binding to glucocorticoid receptor” value is “did not bind to glucocorticoid receptor”.

As for `CC(C)(NS(=O)(=O)c1ccccc1OC(F)(F)F)C(=O)NC1C2CC3CC1CC(C(N)=O)(C3)C2` (stereo not shown) [compound 90, N-4-(2-(2-trifluoromethoxyphenylsulfonamido)-2-methylpropanamido)adamantane-1-carboxyamide], the IC50 at human 11β-HSD1 was determined as 0.017 µM; at mouse 11β-HSD1 it was 0.03 µM. The “binding to glucocorticoid receptor” value at glucocorticoid receptor is given as “did not bind to glucocorticoid receptor”.

Consider `CC(C)(NS(=O)(=O)c1ccccc1Br)C(=O)NC1C2CC3CC1CC(C(N)=O)(C3)C2` (stereo not shown) [compound 84, N-4-(2-(2-bromophenylsulfonamido)-2-methylpropanamido)adamantane-1-carboxyamide], for which the results for the IC50 at human 11β-HSD1 and at mouse 11β-HSD1 were 0.011 µM and 0.008 µM, respectively. Further, the “binding to glucocorticoid receptor” value at glucocorticoid receptor is reported as “did not bind to glucocorticoid receptor”.

Regarding `CC(C)(NS(=O)(=O)c1c(F)cccc1F)C(=O)NC1C2CC3CC1CC(C(N)=O)(C3)C2` (stereo not shown) [compound 89, N-4-(2-(2,6-difluorophenylsulfonamido)-2-methylpropanamido)adamantane-1-carboxyamide], the “binding to glucocorticoid receptor” value at glucocorticoid receptor is listed as “did not bind to glucocorticoid receptor”.

Take `CC(C)(NS(=O)(=O)Cc1ccc(Cl)cc1)C(=O)NC1C2CC3CC(C2)CC1C3` (stereo not shown) [compound 33, N-(adamantane-2-yl)-2-methyl-2-((4-chlorophenyl)methylsulfonamido)propanamide]: the results for the half-inhibitory concentration (IC50) against human 11β-HSD1 and against mouse 11β-HSD1 were 0.065 µM and 1.67 µM, respectively.

`NC(=O)C12CC3CC(C1)C(NC(=O)C1(NS(=O)(=O)c4ccccc4Br)CCC1)C(C3)C2` (stereo not shown) [compound 155, N-4-(1-(2-bromophenylsulfonamido)cyclobutanecarboxyamido)adamantane-1-carboxyamide]: the IC50 against human 11β-HSD1 is 0.024 µM; at mouse 11β-HSD1, 0.145 µM.

Regarding `Cc1c(Cl)cccc1S(=O)(=O)N(C)C(C)(C)C(=O)NC1C2CC3CC1CC(O)(C3)C2` (stereo not shown) [compound 204, N-(5-hydroxyadamantane-2-yl)-2-(2-methyl-3-chloro-N-methylphenylsulfonamido)-2-methylpropanamide], the IC50 at human 11β-HSD1 worked out at 0.004 µM; against mouse 11β-HSD1, 0.042 µM.

On to `COc1ccccc1S(=O)(=O)NC(C)(C)C(=O)NC1C2CC3CC1CC(C(N)=O)(C3)C2` (stereo not shown) [compound 226, 4-[2-(2-methoxy-benzenesulfonylamino)-2-methyl-propionylamino]-adamantane-1-carboxylic acid amide], for which the values for the IC50 at human 11β-HSD1 and against mouse 11β-HSD1 were 0.062 µM and 0.038 µM, respectively.

`CCCc1ccc(S(=O)(=O)NC(C)(C)C(=O)NC2C3CC4CC(C3)CC2C4)cc1` (stereo not shown) [compound 67, N-(adamantane-2-yl)-2-methyl-2-(4-propylphenylsulfonamido)propanamide]: the IC50 was determined as 1.29 µM at human 11β-HSD1 and 1.26 µM against mouse 11β-HSD1.

In the case of `NC(=O)C12CC3CC(C1)C(NC(=O)C1(NS(=O)(=O)c4ccccc4[N+](=O)[O-])CCCC1)C(C3)C2` (stereo not shown) [compound 173, N-4-(1-(2-nitrophenylsulfonamido)cyclopentanecarboxyamido)adamantane-1-carboxyamide], the IC50 at human 11β-HSD1 was found to be 0.014 µM; on mouse 11β-HSD1, 0.038 µM.

On to `CC(C)(NS(=O)(=O)c1ccccc1C#N)C(=O)NC1C2CC3CC1CC(C(N)=O)(C3)C2` (stereo not shown) [compound 130, 4-[2-(2-cyano-benzenesulfonylamino)-2-methyl-propionylamino]-adamantane-1-carboxylic acid amide], for which the IC50 is 0.078 µM at human 11β-HSD1 and 0.405 µM on mouse 11β-HSD1.

With `COc1ccc(OC)c(S(=O)(=O)NC(C)(C)C(=O)NC2C3CC4CC(C3)CC2C4)c1` (stereo not shown) [compound 48, N-(adamantane-2-yl)-2-methyl-2-(2,5-dimethoxyphenylsulfonamido)propanamide], the IC50 was found to be 0.02 µM at human 11β-HSD1 and 1.83 µM on mouse 11β-HSD1.

`COc1ccc(S(=O)(=O)NC(C)(C)C(=O)NC2C3CC4CC(C3)CC2C4)cc1[N+](=O)[O-]` (stereo not shown) [compound 68, N-(adamantane-2-yl)-2-methyl-2-(4-methoxy-3-nitrophenylsulfonamido)propanamide]: the IC50 stood at 1.2 µM at human 11β-HSD1 and 1.12 µM against mouse 11β-HSD1.

In the case of `CC(C)(NS(=O)(=O)c1cc(Cl)ccc1Cl)C(=O)NC1C2CC3CC(C2)CC1C3` (stereo not shown) [compound 9, N-(adamantane-2-yl)-2-methyl-2-(2,5-dichlorophenylsulfonamido)propanamide], the IC50 at human 11β-HSD1 was 0.091 µM; against mouse 11β-HSD1, greater than 2.5 µM.

Consider `CC(C)(NS(=O)(=O)c1ccc(OC(F)F)cc1)C(=O)NC1C2CC3CC1CC(C(N)=O)(C3)C2` (stereo not shown) [compound 93, N-4-(2-(4-difluoromethoxyphenylsulfonamido)-2-methylpropanamido)adamantane-1-carboxyamide], for which the IC50 against human 11β-HSD1 amounted to 0.153 µM; on mouse 11β-HSD1, 0.571 µM.

Consider `NC(=O)C12CC3CC(C1)C(NC(=O)C1(NS(=O)(=O)c4cccc5cccnc45)CCCCC1)C(C3)C2` (stereo not shown) [compound 182, N-4-(1-(quinoline-8-sulfonamido)cyclohexanecarboxyamido)adamantane-1-carboxyamide], for which the figures for the IC50 at human 11β-HSD1 and against mouse 11β-HSD1 were 0.018 µM and 0.006 µM, respectively.

Take `NC(=O)C12CC3CC(C1)C(NC(=O)C1(NS(=O)(=O)c4cccc(Cl)c4F)CCCC1)C(C3)C2` (stereo not shown) [compound 177, N-4-(1-(2-fluoro-3-chlorophenylsulfonamido)cyclopentanecarboxyamido)adamantane-1-carboxyamide]: the IC50 came out at 0.009 µM against human 11β-HSD1 and 0.006 µM against mouse 11β-HSD1.

Take `CC(C)(NS(=O)(=O)c1ccc(F)c(Cl)c1)C(=O)NC1C2CC3CC(C2)CC1C3` (stereo not shown) [compound 54, N-(adamantane-2-yl)-2-methyl-2-(4-fluoro-3-chlorophenylsulfonamido)propanamide]: the IC50 amounted to 0.223 µM against human 11β-HSD1 and 0.904 µM on mouse 11β-HSD1.
